Marks after values point to notes of the source that are not given here.
Assays:
[1] = molecular target: T1, human 5-HT2C–INI (wild-type, WT) receptor (Homo sapiens, UniProt P28335); type: cell-based
T1 sequence (P28335 33-458): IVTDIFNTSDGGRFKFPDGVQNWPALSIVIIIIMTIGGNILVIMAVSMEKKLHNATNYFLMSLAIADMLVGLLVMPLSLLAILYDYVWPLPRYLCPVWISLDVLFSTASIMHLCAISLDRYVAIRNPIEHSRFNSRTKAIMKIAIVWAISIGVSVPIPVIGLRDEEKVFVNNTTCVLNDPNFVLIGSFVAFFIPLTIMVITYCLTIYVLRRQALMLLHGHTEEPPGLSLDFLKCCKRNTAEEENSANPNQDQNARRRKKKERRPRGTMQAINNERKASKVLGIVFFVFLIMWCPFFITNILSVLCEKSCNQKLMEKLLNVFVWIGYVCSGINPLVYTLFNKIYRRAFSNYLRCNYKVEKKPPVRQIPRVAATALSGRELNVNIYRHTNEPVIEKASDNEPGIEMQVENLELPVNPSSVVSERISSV

5-HT2C receptor [2] = molecular target: T2, 5-HT2C receptor (Homo sapiens, UniProt P28335); test: Inverse agonist reduction of basal 5-HT2C-mediated IP production; type: cell-based; conditions: CHO-K1 cells; basal 5-HT2C-mediated IP production after 20 h of vehicle; n = 3
T2 sequence (P28335 33-458): T1 sequence (P28335 33-458)

5-HT2C-INI receptor = molecular target: T3, 5-HT2C-INI receptor (Homo sapiens, UniProt P28335); test: DiscoverX PathHunter β-arrestin recruitment to the 5-HT2C receptor; type: cell-based; conditions: for Emax (% 5-HT), β-arrestin recruitment / pEC50, β-arrestin recruitment: U2OS cells stably expressing 5-HT2C-INI, agonist 2 h, n = 3
T3 sequence (P28335 33-458): T1 sequence (P28335 33-458)

5-HT2C receptor [3] = molecular target: T2, 5-HT2C receptor; conditions: ref Schlag et al., 2004; cited from earlier work
5-HT2C receptor [4] = molecular target: T2, 5-HT2C receptor; test: Inverse agonist sensitization of 5-HT2C receptor IP signaling; type: cell-based; conditions: pretreatment for 8 h or less; data not shown
[5] = Solubility in the desensitization assay; type: physicochemical
5-HT2C receptor (WT) = molecular target: T4, 5-HT2C receptor (WT) (Homo sapiens, UniProt P28335); type: cell-based
T4 sequence (P28335 33-458): T1 sequence (P28335 33-458)

PKC = conditions: read-out: Ki for PKC; ref Herbert et al., 1990; Absolinova et al., 2010; cited from earlier work
5-HT2C receptor [6] = molecular target: T2, 5-HT2C receptor; test: Effect of PKC inhibition on 5-HT-induced 5-HT2C receptor desensitization; conditions: 10 μM chelerythrine; data not shown

SMILES | Emax (% 5-HT), inositol phosphate production [1] | agonist efficacy class relative to 5-HT, IP production [1] | pEC50, inositol phosphate production [1] | Imax (% decrease from basal), inositol phosphate reduction (5-HT2C receptor [2]) | Emax (% 5-HT), β-arrestin recruitment (5-HT2C-INI receptor) | also measured
COc1cc(CC(C)N)c(OC)cc1I (racemic) [DOI, (±) 2,5-dimethoxy-4-iodoamphetamine] | 82 ± 4 % 5-HT | full agonists | 8.32 ± 0.10 |  |  | 
CN(C)[C@@H]1Cc2ccccc2[C@@H](C2CCCCC2)C1 (relative stereo) [CAT, (2S,4R)-(−)-trans-4-cyclohexyl-N,N-dimethyl-1,2,3,4-tetrahydronaphthalen-2-amine] |  |  |  | 26 ± 4 % decrease from basal |  | pIC50, inositol phosphate reduction (5-HT2C receptor [2]): 7.17 ± 0.21
CN(C)[C@@H]1Cc2ccccc2[C@@H](c2cccc(Br)c2)C1 (relative stereo) [MBP, (2S,4R)-(−)-trans-4-(3’[meta]-bromophenyl)-N,N-dimethyl-1,2,3,4-tetrahydronaphthalen-2-amine] | 73 ± 4^a % 5-HT | partial agonists | 7.76 ± 0.04 |  | 7 ± 4^a % 5-HT | effect on 5-HT2C receptor β-arrestin recruitment (in words) (5-HT2C-INI receptor): negligible effects; pEC50, β-arrestin recruitment (5-HT2C-INI receptor): 6.84 ± 0.10^a
CN(C)[C@@H]1Cc2ccccc2[C@@H](c2cccc(C(F)(F)F)c2)C1 (relative stereo) [MFP, (2S,4R)-(−)-trans-4-(3’[meta]-trifluoromethylphenyl)-N,N-dimethyl-1,2,3,4-tetrahydronaphthalene-2-amine] |  |  |  | 25 ± 3 % decrease from basal |  | pIC50, inositol phosphate reduction (5-HT2C receptor [2]): 7.62 ± 0.10
CN(C)[C@@H]1Cc2ccccc2[C@@H](c2ccccc2)C1 (relative stereo) [PAT, (2S,4R)-(−)-trans-4-phenyl-N,N-dimethyl-1,2,3,4-tetrahydronaphthalen-2-amine] | 50 ± 1^a % 5-HT |  |  |  |  | 
C[C@H](N)Cn1ccc2cc(F)c(Cl)cc21 [Ro 60–0175] | 99 ± 6 % 5-HT | full agonists | 8.30 ± 0.05 |  | 92 ± 4 % 5-HT | pEC50, β-arrestin recruitment (5-HT2C-INI receptor): 7.86 ± 0.11
Cn1ccc2cc3c(cc21)CCN3C(=O)Nc1cccnc1 [SB 206553] |  |  |  | 32 ± 5 % decrease from basal |  | sensitization of 5-HT2C receptors after 30 min pretreatment (5-HT2C receptor [3]): insufficient to sensitize; sensitization of the 5-HT2C receptor after short pretreatment (5-HT2C receptor [4]): does not sensitize
O=C1Nc2cc(Cl)c(Cl)cc2N2CCNCC12 (stereo not drawn) [WAY-161503] | 100 ± 2 % 5-HT | full agonists | 8.07 ± 0.08 |  |  | 
O=C1CCc2ccc(OCCCCN3CCN(c4cccc(Cl)c4Cl)CC3)cc2N1 [aripiprazole] | 40 ± 4^a % 5-HT |  |  |  | 8 ± 1^a % 5-HT | solubility in the desensitization assay [5]: low solubility; effect on 5-HT2C receptor β-arrestin recruitment (in words) (5-HT2C-INI receptor): negligible effects; desensitization of 5-HT2C-PLC signaling (in words) (5-HT2C receptor (WT)): did not desensitize
COc1ccc2c(c[n+](C)c3c4cc5c(cc4ccc23)OCO5)c1OC [chelerythrine] |  |  |  |  |  | Ki (PKC): 700 nM; effect of chelerythrine on 5-HT-induced IP production in non-desensitized cells (5-HT2C receptor [6]): no effect
C[C@H]1CNCCc2ccc(Cl)cc21 [lorcaserin] | 100 ± 1 % 5-HT |  |  |  | 118 ± 5^a % 5-HT | 
Clc1cccc(N2CCNCC2)c1 [mCPP, 1-(3-chlorophenyl)piperazine] | 88 ± 10 % 5-HT |  |  |  |  | 
CN1C[C@@H](NS(=O)(=O)N(C)C)C[C@@H]2c3cccc4c3c(cn4C)C[C@H]21 [mesulergine] |  |  |  | 17 ± 2 % decrease from basal |  | 

— paper PMC6767919 (European journal of pharmacology, 2019)
